For series [1] the following is noted: KOH solutions greater than 5M.
Source text: Three different N,N′-dimethylamine oxide surfactants from the same homologous series (i.e., same chemical structure except for tail length) were used to make aqueous alkali surfactant compositions having 2500 ppm surfactant and various concentrations of KOH, as shown by Tables 4, 5, and 6 below.
Series [2] is described as follows: Dynamic surface tension at 51 ms bubble lifetime (bubble pressure tensiometer). The note with it: for Surface tension reduction at dilute concentrations of KOH: KOH <1.5-2.0 M; for Surface tension reduction at dilute concentrations of KOH / Surface tension change as the KOH concentration is increased: 51 ms (FIG. 3); for Surface Tension @ 51 ms: no surfactant. The format is physicochemical. The procedure:
The dynamic surface tension of a liquid may be determined by using a tensiometer. The tensiometer may measure the dynamic surface tension of the liquid according to the bubble pressure method. The bubble pressure method includes injecting a gas, such as air, into a liquid that is to be analyzed. The gas enters the liquid through a capillary that is immersed within the liquid. The difference in pressure between the gas and the liquid is recorded at several gas flow rates. The difference in pressure for each flow rate that is required to form a bubble is proportional to the surface tension of the liquid by the Young-Laplace equation, as reproduced below: […]
where Δp is the pressure differential between the pressure inside the gas bubble and the pressure outside the gas bubble within the liquid in Newtons per square meter (N/m^2); d is the diameter of the capillary in meters (m); and σ is the surface tension of the liquid in Newtons per meter (N/m). The dynamic surface tension of the liquid is calculated for each gas flow rate using the Young-Laplace equation for each flow rate. The bubble lifetime is equal to the time elapsed between the formation of the each bubble and is recorded for each flow rate. The calculated dynamic surface tension values are plotted versus the bubble lifetime.
The method of measuring the dynamic surface tension of a liquid may generally include the steps of: (1) calibrating the tensiometer; (2) cleaning the capillary of the tensiometer; and (3) measuring the dynamic surface tension and bubble lifetime of the liquid with the tensiometer. The method of measuring the dynamic surface tension of a liquid with a tensiometer may, for example, generally follow American Society for Testing and Materials standard ASTM D3825-09.
A SITA science line t60 tensiometer, available from SITA Messetechnik GmbH (Dresden, Germany), may be used to measure the dynamic surface tension of a liquid, such as an electrolyte solution. The t60 tensiometer may be calibrated according to SITA Messetechnik instructions with the tensiometer in Calibration Mode. See SITA science line t60 Manual, p. 4, Section 12.1. The calibration is completed by placing the tip of the capillary tube of the tensiometer into about 25 mL of deionized (DI) water that is held within a glass vessel, such as a 50 mL beaker. The tip of the capillary tube should extend into the solution to the manufacturer's recommended depth that is signaled by a mark on the temperature probe of the tensiometer. The temperature of the DI water should be between about 20° C. and about 30° C.
The t60 tensiometer may then be cleaned according to SITA Messetechnik instructions with the tensiometer in Cleaning Mode. See Id., p. 20, Section 12.4. The capillary tube may first be rinsed with DI water. The cleaning is completed by placing the tip of the capillary tube of the tensiometer into about 25 mL of deionized (DI) water that is held within a glass vessel, such as a 50 mL beaker. The tip of the capillary tube should extend into the solution to the manufacturer's recommended depth that is signaled by a mark on the temperature probe of the tensiometer. The temperature of the DI water should be between about 20° C. and about 30° C. Air is rapidly bubbled through the capillary tube of the tensiometer for about two (2) minutes.
The t60 tensiometer may then be used to obtain dynamic surface tension of the liquid solution to be analyzed. The data may be obtained according to SITA Messetechnik instructions with the tensiometer in Auto-Measurement Mode. See Id., p. 18, Section 12.3. The auto-measurement is completed by placing the tip of the capillary tube of the tensiometer into about 25 mL of the liquid solution that is held within a glass vessel, such as a 50 mL beaker. The tip of the capillary tube should extend into the solution to the manufacturer's recommended depth that is signaled by a mark on the temperature probe of the tensiometer. […]

As for `CCCCCCCCCCCCCC[N+](C)(C)[O-]` [Tetradecyl-N,N′-Dimethylamine Oxide, reference compound], the “Solubility in KOH solutions” value in series [1] is “not soluble”. The “SFT (dynamic surface tension at 51 ms)” value in series [2] (2500 ppm surfactant, KOH 0 M) is on record as 43.1 mN/m; in series [2] (2500 ppm surfactant, KOH 1 M) it was 49.9 mN/m; in series [2] (2500 ppm surfactant, KOH 5 M) it was 80.6 mN/m. Moreover, the “Surface tension reduction at dilute concentrations of KOH” value (“Surface tension reduction” for short) in series [2] (2500 ppm surfactant) is on record as “do provide some surface tension reduction”. For the same compound, the “Surface tension change as the KOH concentration is increased” value in series [2] (2500 ppm surfactant) is “the surface tension increases”.
As for `CCCCCCCC[N+](C)(C)[O-]` [Octyl-N,N′-Dimethylamine Oxide], the “Solubility in KOH solutions” value in series [1] was “no such limit”. Besides, the “SFT (dynamic surface tension at 51 ms)” value was 59.8 mN/m in series [2] (2500 ppm surfactant, KOH 0 M); 56.5 mN/m in series [2] (2500 ppm surfactant, KOH 0.18 M); 57 mN/m in series [2] (2500 ppm surfactant, KOH 0.36 M); 56.3 mN/m in series [2] (2500 ppm surfactant, KOH 0.53 M); 50.6 mN/m in series [2] (2500 ppm surfactant, KOH 1.78 M); 44.4 mN/m in series [2] (2500 ppm surfactant, KOH 2.67 M). Besides, the “SFT (dynamic surface tension at 51 ms)” value in series [2] (2500 ppm surfactant, KOH 3.56 M) turned out to be 38.2 mN/m; in series [2] (2500 ppm surfactant, KOH 4.46 M) it was 34.5 mN/m; in series [2] (2500 ppm surfactant, KOH 5.35 M), 32.9 mN/m; in series [2] (2500 ppm surfactant, KOH 5.53 M), 30.7 mN/m; in series [2] (2500 ppm surfactant, KOH 6.24 M), 32.1 mN/m; in series [2] (2500 ppm surfactant, KOH 6.59 M), 32.1 mN/m. The “Surface tension reduction” value in series [2] (2500 ppm surfactant) was “does not provide or provides little surface tension reduction”. In series [2] (2500 ppm surfactant), the “Surface tension change as the KOH concentration is increased” value is reported as “provides significant surface tension reduction”.
Take `[K+].[OH-]` [KOH, Potassium hydroxide]: the “Surface Tension @ 51 ms” value in series [2] (aqueous KOH 0.5 M) is given as 72.6 mN/m; in series [2] (aqueous KOH 1.0 M), 73.6 mN/m; in series [2] (aqueous KOH 2.0 M) it was 73 mN/m; in series [2] (aqueous KOH 3.0 M), 76 mN/m; in series [2] (aqueous KOH 5.0 M), 79.8 mN/m; in series [2] (aqueous KOH 8.7 M), 86.9 mN/m.
Take `CCCCCCCCCCCC[N+](C)(C)[O-]` [Dodecyl-N,N′-Dimethylamine Oxide, reference compound]: the “Solubility in KOH solutions” value in series [1] is given as “not soluble”. For the same compound, the “SFT (dynamic surface tension at 51 ms)” value was found to be 37.7 mN/m in series [2] (2500 ppm surfactant, KOH 0 M); 37.6 mN/m in series [2] (2500 ppm surfactant, KOH 1 M); 65.4 mN/m in series [2] (2500 ppm surfactant, KOH 3 M); 78.5 mN/m in series [2] (2500 ppm surfactant, KOH 5 M). The “Surface tension reduction” value in series [2] (2500 ppm surfactant) was “do provide some surface tension reduction”. In addition, the “Surface tension change as the KOH concentration is increased” value in series [2] (2500 ppm surfactant) is “the surface tension increases”.
Consider `CCCCB(O)O` [Butyl Boronic Acid], for which the “SFT (dynamic surface tension at 51 ms)” value in series [2] (1.5% surfactant, [KOH] 0) stood at 62.3 mN/m; in series [2] (1.5% surfactant, [KOH] 0.5), 71.8 mN/m; in series [2] (1.5% surfactant, [KOH] 0.75), 73 mN/m; in series [2] (1.5% surfactant, [KOH] 2) it was 84.6 mN/m; in series [2] (1.5% surfactant, [KOH] 4) it was 73.5 mN/m; in series [2] (1.5% surfactant, [KOH] 6.6), 53.8 mN/m. Moreover, the “SFT (dynamic surface tension at 51 ms)” value in series [2] (1.5% surfactant, [KOH] 8.7) stood at 43.6 mN/m.

The values are drawn from patent US20150344820A1, “COMPOSITIONS AND METHODS FOR BIOFILM TREATMENT” (The Procter & Gamble Company, priority 2014, published 2015).
